For orientation: inhibition means the share of the control response that was lost under treatment.

One assay concerns SW480. The assay can be described thus: Antiproliferative activity against human SW480 cells at 10 uM after 24 hrs by MTS assay relative to control. Format: functional. Conditions: SW480, 24 h. A general note: Tetrazolium assays rely on reduction of a dye to a coloured formazan, in cell work by metabolically active cells.
In a further assay the test system is Homo sapiens. Description: Inhibition of LPS-induced NF-kappaB (unknown origin) transactivation expressed in human SW480 cells at 10 uM administered 1 hr after LPS stimulation measured after 6 hrs by luciferase reporter gene assay relative to control. Format: cell-based. A general note: Reporter assays use an easily measured gene product as a stand-in for the process of interest.

For assay [1], the target named is T1, Tyrosinase (Homo sapiens) (UniProt P14679).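 Further: tyrosinase of unspecified origin acting on L-tyrosine, compound preincubated with enzyme for 15 min before adding substrate, inhibition expressed versus control.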
T1 sequence (whole entry): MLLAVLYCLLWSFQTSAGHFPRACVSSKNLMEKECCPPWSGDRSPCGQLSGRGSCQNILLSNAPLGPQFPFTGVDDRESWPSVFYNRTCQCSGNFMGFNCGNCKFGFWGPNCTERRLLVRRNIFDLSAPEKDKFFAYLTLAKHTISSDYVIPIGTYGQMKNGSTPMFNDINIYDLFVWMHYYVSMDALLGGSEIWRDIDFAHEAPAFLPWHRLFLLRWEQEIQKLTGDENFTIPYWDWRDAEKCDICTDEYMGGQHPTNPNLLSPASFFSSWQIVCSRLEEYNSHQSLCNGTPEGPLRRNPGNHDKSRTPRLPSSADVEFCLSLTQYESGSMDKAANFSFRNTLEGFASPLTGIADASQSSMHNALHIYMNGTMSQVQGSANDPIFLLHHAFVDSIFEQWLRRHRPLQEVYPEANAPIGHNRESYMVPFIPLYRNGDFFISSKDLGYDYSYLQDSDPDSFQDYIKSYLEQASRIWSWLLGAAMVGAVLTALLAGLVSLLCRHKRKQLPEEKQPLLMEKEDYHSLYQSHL
Conditions: at 10 µM.
Description: Inhibition of tyrosinase (unknown origin) using L-tyrosine as substrate at 10 uM preincubated for 15 mins followed by substrate addition relative to control

Assay [2] has as its target T2, Tyrosine-protein phosphatase non-receptor type 1 (Homo sapiens) (UniProt P18031).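 Further: recombinant enzyme assay with pNPP substrate, inhibition read after 30 min versus untreated control.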
T2 sequence (whole entry): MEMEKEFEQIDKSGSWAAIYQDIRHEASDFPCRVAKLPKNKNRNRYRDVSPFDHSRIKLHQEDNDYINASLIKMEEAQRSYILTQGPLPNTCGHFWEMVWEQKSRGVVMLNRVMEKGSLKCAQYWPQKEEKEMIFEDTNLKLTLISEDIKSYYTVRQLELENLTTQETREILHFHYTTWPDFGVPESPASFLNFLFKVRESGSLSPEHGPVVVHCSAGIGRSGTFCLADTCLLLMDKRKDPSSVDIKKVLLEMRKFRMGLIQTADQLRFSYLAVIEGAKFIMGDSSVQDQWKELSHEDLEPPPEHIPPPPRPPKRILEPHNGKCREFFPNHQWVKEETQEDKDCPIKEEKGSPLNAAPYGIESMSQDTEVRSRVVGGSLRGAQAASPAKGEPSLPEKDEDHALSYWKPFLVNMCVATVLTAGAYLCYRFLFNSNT
The conditions noted are these: at 10 µM.
Description: Inhibition of recombinant human PTP1B using pNPP as substrate at 10 uM after 30 mins relative to control

Another assay has as its system A549. The assay can be described thus: Antiproliferative activity against human A549 cells at 10 uM after 24 hrs by MTS assay relative to control. The format is functional. Conditions: A549, 24 h.
The next assay concerns RAW264.7. Description: Antiinflammatory activity against mouse RAW264.7 cells assessed as inhibition of LPS-induced nitric oxide production at 10 uM after 24 hrs by Griess assay relative to control. Format: functional. The conditions noted are these: RAW264.7, 24 h.
A further assay concerns MCF7. Description: Antiproliferative activity against human MCF7 cells at 10 uM after 24 hrs by MTS assay relative to control. The format is functional. The conditions noted are these: MCF7, 24 h.
The subject of another assay is HepG2. Description: Antiproliferative activity against human HepG2 cells at 10 uM after 24 hrs by MTS assay relative to control. The format is functional. Conditions: HepG2, 24 h.

Peptide text beside a SMILES is read from it. * marks the point of attachment. Cbz = O=C(OCc1ccccc1)*

Take `CC(C)=CCc1c(O)cc(O)c2c(=O)c(-c3ccc(O)cc3O)coc12`: the inhibition at 10 µM with SW480 worked out at 4.2%; with A549, 4.2%; in the assay on RAW264.7 it was 10.3%; in the assay on MCF7, 7.4%; in the assay on HepG2, 0%. Further, the inhibition came to 0% with Homo sapiens, 49.6% in assay [1] and 18.2% in assay [2].

Consider `CC(C)=CCc1cc([C@H]2Oc3cc(O)ccc3C[C@H]2O)ccc1O`, for which the inhibition at 10 µM in the assay with SW480 came out at 32.7%; in the assay with A549, 13.3%; in the assay on RAW264.7, 1.8%; with MCF7, 18.6%; in the assay on HepG2, 7.3%. Further, the inhibition is 9.8% with Homo sapiens, 14.3% in assay [1] and 10.4% in assay [2].

For `CCc1c2c(nc3ccc(OC(=O)N4CCC(N5CCCCC5)CC4)cc13)-c1cc3c(c(=O)n1C2)COC(=O)[C@]3(O)CC` [IRINOTECAN], the inhibition at 10 µM with SW480 worked out at 95%; in the assay on A549, 91.8%; in the assay with MCF7, 93.6%; in the assay with HepG2 it was 98.9%.

In turn, `CC(C)C[C@@H](C=O)NC(=O)[C@H](CC(C)C)NC(=O)[C@H](CC(C)C)NC(=O)OCc1ccccc1` (Cbz-Leu-Leu-Leu-aldehyde) yielded an inhibition with Homo sapiens of 79.2%.

For the compound `CC1(C)C=Cc2c(ccc(-c3coc4cc(O)ccc4c3=O)c2O)O1` [GLABRONE], the inhibition at 10 µM with SW480 was determined as 45.4%; in the assay on A549 it was 0%; in the assay on RAW264.7 it was 42%; in the assay on MCF7, 36.1%; in the assay with HepG2, 29.2%. The inhibition with Homo sapiens amounted to 6.4%; in assay [1] it was 9.7%; in assay [2], 0.3%.

Take `CC1(C)C=Cc2c(ccc3cc(-c4ccc(O)cc4O)oc23)O1`: the inhibition at 10 µM stood at 27.6% in the assay on SW480; 0% with A549; 14.2% in the assay with RAW264.7; 20.4% in the assay with MCF7; 12.3% in the assay on HepG2. Also, the figures for the inhibition (in the assay on Homo sapiens; in assay [1]; in assay [2]) were 17%, 66.9% and 73.1%, respectively.

With `C[C@H]1[C@H](C)CC[C@]2(C(=O)O)CC[C@]3(C)C(=CC[C@@H]4[C@@]5(C)CC[C@H](O)C(C)(C)[C@@H]5CC[C@]43C)[C@H]12`, the inhibition in assay [2] came out at 82.1%.

On to `COc1ccc(-c2coc3cc(O)ccc3c2=O)cc1` [FORMONONETIN], for which the inhibition at 10 µM with SW480 was 0%; in the assay on A549, 15.4%; in the assay on RAW264.7, 0%; with MCF7, 51.8%; in the assay with HepG2, 8.2%. Further, the inhibition in the assay on Homo sapiens stood at 0%; in assay [1], 4.3%; in assay [2], 9.9%.

Take `CC1(C)C=Cc2c(ccc3c2O[C@H]2c4ccc(O)cc4OC[C@@H]32)O1` [PHASEOLIN]: the inhibition at 10 µM was found to be 0% with SW480; 34.7% in the assay with A549; 2.6% in the assay on RAW264.7; 6.8% in the assay with MCF7; 0% with HepG2. Further, the inhibition in the assay on Homo sapiens worked out at 2.1%; in assay [1], 2.4%; in assay [2], 9.5%.

For the compound `COc1ccc([C@@H]2COc3c(ccc4c3C=CC(C)(C)O4)C2)c(O)c1`, the inhibition at 10 µM in the assay on SW480 is 16.1%; with A549, 35.9%; with RAW264.7 it was 8.5%; in the assay with MCF7, 5.3%; in the assay with HepG2 it was 54.2%. Besides, the inhibition with Homo sapiens was 4.1%; in assay [1], 2.2%; in assay [2], 14.6%.

As for `CC1(C)C=Cc2cc([C@@H]3CC(=O)c4ccc(O)cc4O3)ccc2O1` [ABYSSINONE I], the inhibition at 10 µM with SW480 was determined as 17.4%; with A549, 0%; in the assay with RAW264.7 it was 0%; in the assay on MCF7, 13.8%; with HepG2, 33.9%. The inhibition worked out at 23.1% in the assay with Homo sapiens, 2.9% in assay [1] and 10.1% in assay [2].

In the case of `CC1(C)C=Cc2c(ccc3c2OCC(c2ccc(O)cc2O)=C3)O1`, the inhibition at 10 µM came to 0% in the assay with SW480; 2.1% in the assay with A549; 21.4% in the assay on RAW264.7; 1.9% in the assay on MCF7; 0% in the assay on HepG2. Also, the results for the inhibition (in the assay on Homo sapiens; in assay [1]; in assay [2]) were 13.7%, 50.9% and 6.1%, respectively.

For the compound `CC1(C)C=Cc2c(ccc(-c3oc4cc(O)ccc4c3C=O)c2O)O1`, the inhibition at 10 µM came out at 5.3% in the assay on SW480; 7.9% with A549; 36.5% in the assay with RAW264.7; 35.8% in the assay on MCF7; 21% with HepG2. Also, the figures for the inhibition (with Homo sapiens; in assay [1]; in assay [2]) were 36.6%, 10.5% and 9.3%, respectively.

For the compound `CC(C)=CCc1cc(C[C@@H](O)C(=O)c2cc(CC=C(C)C)c(O)cc2O)ccc1O`, the inhibition at 10 µM in the assay with SW480 was 24.6%; in the assay with A549, 46.1%; in the assay on RAW264.7 it was 0%; in the assay on MCF7, 42.1%; in the assay on HepG2, 5.8%. Further, the inhibition with Homo sapiens was found to be 24.3%; in assay [1], 8.3%; in assay [2], 27%.

With `CC(C)=CCc1cc([C@@H]2CC(=O)c3ccc(O)cc3O2)ccc1O` [ABYSSINONE II], the inhibition at 10 µM in the assay on SW480 was found to be 0%; in the assay with A549, 0%; in the assay with RAW264.7, 10.5%; in the assay on MCF7, 42.3%; in the assay on HepG2, 44.2%. Also, the inhibition was 56.6% in the assay on Homo sapiens, 7.8% in assay [1] and 4.2% in assay [2].

`COc1c(CC=C(C)C)c(O)cc2c1C[C@H](c1ccc(O)cc1O)CO2` came in with an inhibition in assay [1] of 91.1%.

In the case of `CC(C)=CCc1cc([C@H]2Oc3c(ccc4c3C=CC(C)(C)O4)C(=O)[C@@H]2O)ccc1O`, the inhibition at 10 µM was 9.2% in the assay with SW480; 21.2% in the assay with A549; 0.3% in the assay on RAW264.7; 13.5% with MCF7; 42.9% with HepG2. Moreover, the results for the inhibition (in the assay with Homo sapiens; in assay [1]; in assay [2]) were 40.3%, 8.1% and 10.6%, respectively.

With `COc1cc(/C=C/C(=O)CC(=O)/C=C/c2ccc(O)c(OC)c2)ccc1O` [CURCUMIN], the inhibition at 10 µM with RAW264.7 came out at 70%.

As to `COc1ccc([C@@H]2COc3c(ccc(O)c3CC=C(C)C)C2)c(O)c1O`, the inhibition at 10 µM with SW480 stood at 0.2%; in the assay with A549, 15.5%; in the assay with RAW264.7, 33%; in the assay with MCF7, 30.4%; with HepG2, 38%. Further, the inhibition in the assay with Homo sapiens worked out at 8.4%; in assay [1], 20.1%; in assay [2] it was 80%.

`CC1(C)C=Cc2c(ccc3c2OC[C@H]2c4ccc(O)cc4O[C@@H]32)O1` [SHINPTEROCARPIN]: the inhibition at 10 µM in the assay on SW480 is 0%; in the assay with A549, 2.2%; in the assay with RAW264.7, 4.1%; in the assay on MCF7, 14.4%; with HepG2, 65%. Besides, the inhibition in the assay with Homo sapiens was 0%; in assay [1], 11.2%; in assay [2], 13.3%.

Consider `CC1(C)C=Cc2c(ccc3cc(-c4ccc(O)cc4O)c(=O)oc23)O1` [KANZONOL W], for which the inhibition at 10 µM stood at 0% in the assay on SW480; 3.7% in the assay on A549; 18.9% in the assay on RAW264.7; 47.3% in the assay on MCF7; 32.7% in the assay on HepG2. Besides, the inhibition in the assay with Homo sapiens turned out to be 4.5%; in assay [1], 7.6%; in assay [2], 16.2%.

As for `COc1ccc([C@@H]2COc3c(ccc4c3C=CC(C)(C)O4)C2)c(O)c1O`, the inhibition at 10 µM in the assay on SW480 is 12.9%; in the assay with A549 it was 30.2%; with RAW264.7, 17.3%; in the assay on MCF7 it was 23.3%; in the assay with HepG2, 49.6%. In addition, the inhibition in the assay with Homo sapiens came to 22.1%; in assay [1] it was 18.4%; in assay [2], 22.4%.
